We go through eleven compounds from ChEMBL document CHEMBL1201862, “PubChem BioAssay data set” (2004).

Some test systems named below: A498; DU-145; HCT-15; HL-60; HT-29; IGROV-1; KM12; MDA-MB-231; MDA-N; NCI-H226; OVCAR-3; OVCAR-4; RPMI-8226; SF-295; SK-MEL-28; U-251; UACC-257; UO-31; NCI-H522; SW-620.
Holding throughout (assay): NCI-60 cell line screen, 48 h

SMILES strings stand for the structures.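 Cells were grown in 96-well plates and exposed to each compound for 48 hours at five concentrations; endpoints were interpolated linearly between bracketing concentrations, or set to the highest concentration if not reached. At the GI50, growth is halved.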 The source made the active and inactive calls. No stated cut-off is given here; in the data, active = GI50 up to about 1.1 µM and inactive = higher.

Regarding `Cn1c(=O)c2c(nc(-n3nc(-c4ccc(Cl)cc4)cc3N)n2C)n(C)c1=O`, the GI50 with A498 was > 100 µM (inactive); with DU-145 it was > 100 µM (inactive); with HCT-15, greater than 100 µM; in the experiment with HL-60 it was > 100 µM (inactive); with HT-29, > 100 µM (inactive); in the experiment on IGROV-1, > 100 µM (inactive). Moreover, the GI50 was > 100 µM (inactive) in the experiment on KM12; > 100 µM (inactive) in the experiment on MDA-MB-231; > 100 µM (inactive) in the experiment with MDA-N; 55.2 µM (inactive) with NCI-H226; > 100 µM (inactive) in the experiment on OVCAR-3; 5.6 µM (inactive) in the experiment with OVCAR-4. The GI50 with RPMI-8226 was 69.7 µM (inactive); in the experiment with SF-295 it was 25.5 µM (inactive); in the experiment on SK-MEL-28, > 100 µM (inactive); with U-251 it was > 100 µM (inactive); in the experiment on UACC-257 it was > 100 µM (inactive); in the experiment on UO-31 it was > 100 µM (inactive).
For `COc1ccc([C@H]2[C@H]3COC(=O)[C@H]3C(C#N)=C3Sc4ccccc4N32)cc1`, the GI50 in the experiment with A498 is 43.7 µM (inactive); in the experiment on DU-145, 19.2 µM (inactive); in the experiment with HCT-15 it was 25.8 µM; in the experiment on HT-29 it was 12.4 µM (inactive); with KM12 it was 27.2 µM (inactive); with MDA-MB-231 it was 28.3 µM (inactive). The GI50 in the experiment on MDA-N was 28.8 µM (inactive); in the experiment with NCI-H226, 33.1 µM (inactive); in the experiment on NCI-H522, 18.1 µM (inactive); with OVCAR-3, 16.4 µM (inactive); in the experiment with OVCAR-4 it was 33.7 µM (inactive); in the experiment with RPMI-8226, 20.7 µM (inactive). Moreover, the GI50 in the experiment on SF-295 is 16.3 µM (inactive); in the experiment on SK-MEL-28, 53.5 µM (inactive); with SW-620 it was 48.6 µM (inactive); in the experiment on U-251, 24.6 µM (inactive); in the experiment on UACC-257, 40.6 µM (inactive); in the experiment on UO-31 it was 23.4 µM (inactive).
As to `NC(=O)C(c1ccccc1)N1OC2C(=O)N(Cc3ccccc3)C(=O)C2C1c1cccc(Oc2ccc(Cl)cc2)c1` (configuration not stated), the GI50 is 52.1 µM (inactive) in the experiment with A498; 33.1 µM (inactive) in the experiment with DU-145; 30.4 µM in the experiment with HCT-15; 23.4 µM (inactive) in the experiment on HL-60; 18.2 µM (inactive) in the experiment on HT-29; 36.5 µM (inactive) in the experiment on IGROV-1. Besides, the GI50 was 28.3 µM (inactive) with KM12; 37.1 µM (inactive) in the experiment on MDA-MB-231; 20.7 µM (inactive) with MDA-N; 26.8 µM (inactive) in the experiment with NCI-H226; 28.7 µM (inactive) with NCI-H522; 19.9 µM (inactive) in the experiment with OVCAR-3. Also, the GI50 is 27.8 µM (inactive) in the experiment on OVCAR-4; 38.5 µM (inactive) with SF-295; 79.3 µM (inactive) with SK-MEL-28; 48.8 µM (inactive) in the experiment on SW-620; 28.2 µM (inactive) in the experiment with U-251; 36.6 µM (inactive) in the experiment on UACC-257. Also, in the experiment on UO-31, the GI50 was 2.73 µM (inactive).
In the case of `C=C(OC1C(C)=C2C(C1OC(=O)CCCCCCC)C(C)(OC(C)=O)CC(OC(=O)CCC)C1(O)C2OC(=O)C1(C)O)/C(C)=C/C` (configuration not stated), the GI50 was 0.0125 µM (active) with A498; < 0.0001 µM (active) in the experiment on DU-145; 0.0316 µM in the experiment with HCT-15; 0.0125 µM (active) in the experiment on HT-29; 0.0125 µM (active) in the experiment with IGROV-1; 0.0125 µM (active) with KM12. Further, the GI50 was < 0.0001 µM (active) with MDA-MB-231; < 0.0001 µM (active) with MDA-N; 0.0641 µM (active) in the experiment on NCI-H226; 0.0125 µM (active) with NCI-H522; 0.0125 µM (active) in the experiment on OVCAR-4; 0.0125 µM (active) in the experiment with RPMI-8226. The GI50 in the experiment on SF-295 is 0.0125 µM (active); in the experiment with SK-MEL-28 it was 0.0125 µM (active); in the experiment on SW-620, 0.0125 µM (active); with U-251, 0.0125 µM (active); in the experiment on UACC-257, 0.0125 µM (active); in the experiment with UO-31, 0.115 µM (active).
Turning to `COc1ccc(CN2C(=O)CCC/C=C\[C@H]2CI)cc1`, the GI50 with A498 was 12.5 µM (inactive); in the experiment on DU-145, 13.3 µM (inactive); with HCT-15, 12.4 µM; in the experiment with HT-29, 9.71 µM (inactive); in the experiment on IGROV-1, 15.6 µM (inactive); with KM12, 11 µM (inactive). In addition, the GI50 in the experiment with MDA-MB-231 was 11 µM (inactive); in the experiment with MDA-N, 13.1 µM (inactive); in the experiment with NCI-H226, 12.9 µM (inactive); in the experiment with NCI-H522, 12.7 µM (inactive); in the experiment on OVCAR-3 it was 11.6 µM (inactive); in the experiment with OVCAR-4 it was 10.9 µM (inactive). Moreover, the GI50 in the experiment on RPMI-8226 is 6.97 µM (inactive); with SF-295, 13.5 µM (inactive); in the experiment with SK-MEL-28 it was 12.6 µM (inactive); in the experiment with SW-620 it was 11.6 µM (inactive); with U-251 it was 13.6 µM (inactive); in the experiment on UACC-257 it was 10.1 µM (inactive). Further, the GI50 in the experiment with UO-31 was 11.6 µM (inactive).
On to `Cc1cc(-c2ccc[nH]2)on1`, for which the GI50 with A498 was > 100 µM (inactive); with DU-145 it was > 100 µM (inactive); in the experiment on HCT-15 it was greater than 100 µM; in the experiment on HT-29, > 100 µM (inactive); in the experiment with IGROV-1, > 100 µM (inactive); in the experiment with KM12 it was > 100 µM (inactive). The GI50 in the experiment on MDA-MB-231, in the experiment with MDA-N, in the experiment on NCI-H522, in the experiment with OVCAR-3, with OVCAR-4 and in the experiment with RPMI-8226 was > 100 µM (inactive) each time. Also, the GI50 in the experiment on SF-295, in the experiment with SK-MEL-28, in the experiment with SW-620, in the experiment with U-251, in the experiment with UACC-257 and with UO-31 was > 100 µM (inactive) each time.
With `CCOc1ccc(/C=C2/C(=O)N/C(=N\C(C)=O)N2C)cc1`, the GI50 with A498 is > 100 µM (inactive); in the experiment on DU-145 it was > 100 µM (inactive); in the experiment on HCT-15, 64.7 µM; with HL-60, 17.9 µM (inactive); in the experiment with HT-29, > 100 µM (inactive); in the experiment with IGROV-1 it was > 100 µM (inactive). Further, the GI50 in the experiment with KM12, in the experiment with MDA-MB-231, in the experiment with MDA-N, in the experiment with NCI-H226, with OVCAR-3 and in the experiment with OVCAR-4 was > 100 µM (inactive) throughout. Moreover, the GI50 in the experiment on SF-295, in the experiment with SK-MEL-28, with SW-620, with U-251, in the experiment on UACC-257 and in the experiment with UO-31 was > 100 µM (inactive) in each case.
Turning to `O=C(Cc1ccccc1)NCCCN(CCCCN(CCCNC(=O)Cc1ccccc1)C(=O)OCc1ccccc1)C(=O)OCc1ccccc1`, the GI50 in the experiment on A498 is > 75.9 µM (inactive); in the experiment on DU-145, > 100 µM (inactive); in the experiment with HCT-15, greater than 43.4 µM; in the experiment with HT-29 it was > 24.8 µM (inactive); in the experiment with IGROV-1 it was > 100 µM (inactive); in the experiment on KM12 it was > 100 µM (inactive). Further, the GI50 in the experiment with MDA-MB-231 was > 100 µM (inactive); with MDA-N it was > 100 µM (inactive); in the experiment with NCI-H226 it was > 100 µM (inactive); in the experiment on NCI-H522, 1.42 µM (inactive); in the experiment on OVCAR-3, > 100 µM (inactive); with RPMI-8226, 4.19 µM (inactive). The GI50 with SF-295 was > 100 µM (inactive); in the experiment on SK-MEL-28 it was > 100 µM (inactive); in the experiment on SW-620 it was > 100 µM (inactive); in the experiment on U-251 it was > 100 µM (inactive); in the experiment with UACC-257 it was > 100 µM (inactive); in the experiment on UO-31, 1.66 µM (inactive).
As to `Cc1ccc(S(=O)(=O)NCCCCC(N)C(=O)O)cc1` (configuration not stated), the GI50 was > 100 µM (inactive) with A498; > 100 µM (inactive) with DU-145; greater than 100 µM with HCT-15; > 100 µM (inactive) in the experiment on HT-29; > 100 µM (inactive) in the experiment with IGROV-1; > 100 µM (inactive) in the experiment on KM12. Further, the GI50 with MDA-MB-231, in the experiment with MDA-N, in the experiment with NCI-H226, in the experiment on NCI-H522, with OVCAR-3 and with OVCAR-4 was > 100 µM (inactive) in each case. Also, the GI50 in the experiment with RPMI-8226, with SF-295, in the experiment on SK-MEL-28, with SW-620, in the experiment with U-251 and in the experiment with UACC-257 was > 100 µM (inactive) in each case. In the experiment on UO-31, the GI50 was > 100 µM (inactive).
In the case of `COc1ccc2c(c1)CC[C@@H]1C2CC[C@]2(C)C(=O)N(CCN(C)C)C(=O)CC12` (some centres not stated), the GI50 with A498, in the experiment on DU-145, in the experiment with HL-60, with HT-29, with IGROV-1 and with KM12 was > 100 µM (inactive) each time. Besides, the GI50 in the experiment on MDA-MB-231, with MDA-N, in the experiment on NCI-H226, in the experiment with NCI-H522, in the experiment on OVCAR-3 and with OVCAR-4 was > 100 µM (inactive) throughout. Further, the GI50 in the experiment with SF-295, in the experiment on SK-MEL-28, in the experiment with SW-620, in the experiment with U-251, with UACC-257 and in the experiment on UO-31 was > 100 µM (inactive) in each case.
Turning to `COc1ccc(/N=C2\C(=O)C3=C(OC(C)(C)CC3)c3ccccc32)cc1`, the GI50 in the experiment with A498 was 7.91 µM (inactive); in the experiment on DU-145 it was 0.871 µM (active); with HCT-15, 1.05 µM; in the experiment with HL-60 it was 0.592 µM (active); with HT-29, 0.741 µM (active); with IGROV-1, 1.36 µM (inactive). In addition, the GI50 was 0.968 µM (active) in the experiment on KM12; 1.41 µM (inactive) with MDA-MB-231; 0.492 µM (active) in the experiment on MDA-N; 6.37 µM (inactive) in the experiment with NCI-H226; 1.04 µM (active) with NCI-H522; 0.361 µM (active) in the experiment on OVCAR-3. For the same compound, the GI50 with OVCAR-4 was 0.773 µM (active); in the experiment with SF-295, 0.863 µM (active); in the experiment with SK-MEL-28, 1.14 µM (inactive); in the experiment on SW-620, 0.873 µM (active); with U-251, 0.841 µM (active); with UACC-257 it was 0.968 µM (active). For the same compound, the GI50 in the experiment with UO-31 is 0.755 µM (active).
